Experimental data taken from patent US20260166016A1, “GPR139 RECEPTOR AGONIST, PREPARATION METHOD THEREFOR, AND APPLICATION THEREOF” (NEUBO APPTECH CO., LTD., priority 2022, published 2026).

Assays:
[1] = system: LPS induced mouse depression model; experiment: LPS induced mouse depression model, body weight; type: in vivo; details: male CD1 (ICR) mice; gavage 2.5 mg/mL at 0.1 mL/10 g twice daily Day 1-4; LPS i.p. Day 4; weighed Day 5; FIG. 4
Description: (§1) Mice: Male Crl: CD1 (ICR) mice; 10-14 weeks old; Weight: 35-40 g; Quantity: 40 pieces
(§2) Group 1, placebo+saline group: 10 mice; divided into 2 cages, 5 mice per cage.
(§3) Group 2, placebo+lipopolysaccharide (LPS) group: 10 mice; divided into 2 cages, 5 mice per cage.
(§4) Group 3, compound NRB181+saline group: 10 mice; divided into 2 cages, 5 mice per cage.
(§5) Group 4, compound NRB181+lipopolysaccharide (LPS) group: 10 mice; divided into 2 cages, 5 mice per cage.
(§6) 21.3.1 Preparation of placebo before experiment: 0.5% CMC sodium+1% Tween80+saline. In a clean bench, 4 tubes of 40 mL placebo were prepared using pyrogen-free centrifuge tubes and ultrapure water, totaling 160 mL, ensuring the absence of endotoxins (LPS). Sterile and endotoxin free centrifuge tubes were used to divide […] of placebo into 4 mL/tube, for a total of 30 tubes, and stored at 4° C. for future use.
LPS with a purity of >98% was required 3.2 mg of LPS was accurately weighed and dissolved in 40 mL of placebo to prepare a sterile solution of 0.08 mg/mL. […]
21.3.4 On the first day of the experiment at 8:00 am, four groups of mice were randomly divided into groups, and the weight of each mouse was recorded before being placed back in their respective cages. […]
21.3.14 On the Day 5 of the experiment at 9:00 am, each group of mice was weighed and recorded, and then were returned to their home cages.

[2] = system: LPS induced mouse depression model; experiment: LPS induced mouse depression model, Forced Swim Test; type: in vivo; details: gavage 2.5 mg/mL at 0.1 mL/10 g twice daily Day 1-4, test 24 hours after injection, FIG. 5
Description: as §1, §2, §3, §4, §5, §6
LPS with a purity of >98% was required 3.2 mg of LPS was accurately weighed and dissolved in 40 mL of placebo to prepare a sterile solution of 0.08 mg/mL. After thorough mixing, the solution was divided into sterile and endotoxin-free centrifuge tubes, 4 mL per tube. […]
21.3.15 On the Day 5 of experiment, 24 hours after mice of Group 1 were injected with saline the day before, a Forced Swim Test was conducted on each group of mice starting from Group 1, and the immobility time of each mouse was recorded.

GPR139 = target: T1, GPR139 (Homo sapiens, UniProt Q6DWJ6); experiment: GPR139 FLIPR cell calcium signal detection in GPR139-transfected HEK293 cells; type: cell-based; details: HEK293 cells transfected with GPR139, read-out: EC50 values of compounds for GPR139
T1 construct: expressed in transfected cells; host or cells: HEK293
T1 sequence (Q6DWJ6 1-353): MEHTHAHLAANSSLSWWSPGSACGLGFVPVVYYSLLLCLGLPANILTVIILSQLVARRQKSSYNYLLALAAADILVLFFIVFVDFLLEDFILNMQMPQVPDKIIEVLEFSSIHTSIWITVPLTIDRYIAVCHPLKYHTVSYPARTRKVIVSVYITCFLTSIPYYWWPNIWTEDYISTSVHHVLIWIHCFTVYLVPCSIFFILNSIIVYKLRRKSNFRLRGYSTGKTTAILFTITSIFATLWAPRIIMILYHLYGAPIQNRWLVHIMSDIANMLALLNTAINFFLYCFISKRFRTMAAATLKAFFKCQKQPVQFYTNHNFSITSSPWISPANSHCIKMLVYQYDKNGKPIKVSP
Experimental: HEK293 cells were grown in a 10 cm culture dish containing DMEM complete medium (containing glutamine, sodium pyruvate, penicillin/streptomycin, 10% fetal bovine serum) and incubated at 37° C. in a 5% CO2 incubator until 90% confluency. Then subculture twice a week at a ratio of 1:5. During cell passaging, the culture medium was first completely removed, washed once with 4 mL of DPBS, and then 3 mL of trypsin digestion solution was added and mixed well. When cell dissociation was observed, the trypsin solution was aspirated and 5 mL of complete DMEM medium was added. The cells were dispersed by pipetting, and 1 mL of cell suspension was added to each of five new 10 cm culture dishes. Then, 7 mL of complete DMEM medium was supplemented to each dish. After mixing, the cells were cultured at 37° C. in a 5% CO2 incubator.
On the transfection day, cells were digested and seeded into one 10 cm culture dish at appropriate density. 6 mL of DMEM/F12 medium (containing glutamine, sodium pyruvate, HEPES, and fetal bovine serum) was added, and the cells were cultured for 5 hours at 37° C. in 5% CO2. A 50 mL sterile centrifuge tube (Tube A) was taken, and 1 mL of serum-free DMEM/F12 medium (containing glutamine, sodium pyruvate, and HEPES) was added, followed by 10 μg of GPR139 DNA. The mixture was mixed well. Another 50 mL sterile centrifuge tube (Tube B) was taken, and 1 mL of serum-free DMEM medium (containing glutamine, sodium pyruvate, and HEPES) was added, followed by 60 μL of Fugene HD transfection reagent. The mixture was mixed well. 1 mL of Fugene HD transfection reagent from Tube B was transferred to Tube A, mixed well, and incubated at room temperature for 20 minutes. 2 mL of DMEM/F12 medium (containing glutamine, sodium pyruvate, HEPES, and fetal bovine serum) was added to Tube A. After mixing, 4 mL of mixture from Tube A was transferred to the prepared 10 cm dish (total volume 10 mL). The cells were cultured for 20-24 hours at 37° C. in 5% CO2.
The next day, the transfected cells were digested with trypsin digestion solution, and appropriate DMEM/F12 medium (containing glutamine, sodium pyruvate, HEPES, penicillin/streptomycin, fetal bovine serum) was added. The cells were seeded into Matrigel coated 384-well plates with a cell density of 6.67×10^6 cells/mL, 30 μL/well. The 384-well plates were cultured at 37° C. in 5% CO2.
On the third day, 10 μL/well of FLIPR dye (diluted in HEPES solution containing Pluronic and Probenecid) was added to the 384-well cell plate. And the plate was incubated for 40 minutes at 37° C. in 5% CO2. Diluted compounds were added to the cell plate and calcium signals were measured using a FLIPR plate reader.
Data were analyzed using XL-fit software to obtain EC50 values for each compound.

In the case of C[C@H](NC(=O)CNC(=O)c1cc(Cl)ccn1)c1c(F)cccc1F [NRB181], the “weight loss (body weight changes)” value [1] is reported as “significantly alleviate weight loss”, the “despair time (immobility time) in the Forced Swim Test” value [2] is reported as “significantly reduce the despair time” and the EC50 (GPR139) is reported as 0.1 to 100 nM.
